# Data: US6441193B1, “Estrogen agonists/antagonists” (Pfizer Inc., priority 1995, dated 2002)
# Columns and labels:
# prostate = experiment: Effect on prostate weight (wet prostate weight after 14 days of daily subcutaneous injection); format: in vivo, rat; conditions: male Sprague-Dawley rats, s.c. daily for 14 days
# Procedure: Male Sprague-Dawley rats, three months of age are administered by subcutaneous injection either vehicle (10% ethanol in water), estradiol (30 μg/kg), testosterone (1 mg/kg) or a compound of formula I daily for 14 days (n=6/group). After 14 days the animals are sacrificed, the prostate is removed and the wet prostate weight is determined. Mean weight is determined and statistical significance (p<0.05) is determined compared to the vehicle-treated group using Student's t-test.
# ventral prostate = conditions: male rats; cited from earlier work
smiles,measurement,setting,value
"C[C@]12CC[C@H]3[C@@H](CCC4=CC(=O)CC[C@@]43C)[C@@H]1CC[C@@H]2O [Testosterone, testosterone]",wet prostate weight compared to vehicle,prostate; testosterone 1 mg/kg,no effect
"C[C@]12CC[C@@H]3c4ccc(O)cc4CC[C@H]3[C@@H]1CC[C@@H]2O [estrogen, estradiol]",wet prostate weight compared to vehicle,prostate; 30 μg/kg,significantly reduces prostate weight
"O=C(c1ccc(OCCN2CCCCC2)cc1)c1c(-c2ccc(O)cc2)sc2cc(O)ccc12 [raloxifene, 6-hydroxy-2-(4-hydroxyphenyl)-3-[4-(2-piperidinoethoxy)benzoyl] benzo[b] thiophene]",effect on ventral prostate,ventral prostate,regression of the ventral prostate
